Several values for one entry are separate records, joined by “and”; a condition that tells them apart may be missing. Equal entries are not always repeated.
Tests used:
Type in all cases: physicochemical
[1] = dynamic vapor sorption (DVS) test; conditions: for hygroscopicity (result in words): DVS
Description: Dynamic Vapor Sorption (DVS) is a common method to investigate the moisture adsorption of drugs, excipients or packaging materials through a dynamically accelerated moisture adsorption process. The moisture adsorption isotherm is usually used to describe the degree of correlation between the moisture content of the sample and the relative humidity during the moisture adsorption process of the sample. DVS patterns can be measured, for example, on a model IGAsorp instrument. In one embodiment, the dynamic vapor sorption pattern of the crystal form I is determined by the following method: DVS dynamic vapor sorption instrument: IGAsorp; temperature: 25° C.; temperature stability: 0.1° C./min; carrier gas: nitrogen; flow rate: 250 mL/min; scanning: 2; minimum time: 30 min; maximum time: 2 hours; upper waiting limit: 98%; humidity gradient: adsorption: 0, 10, 20, 30, 40, 50, 60, 70, 80, 90; desorption: 80, 70, 60, 50, 40, 30, 20, 10, 0. DVS Dynamic Vapor Sorption Apparatus: IGAsorb, the temperature is 25° C., the temperature stability: 0.1° C./min, the carrier gas is nitrogen, the flow rate is 250 mL/min, scanning: 2, the minimum time is 30 min, the maximum time is 2 hours, the upper waiting limit is 98%, humidity gradient: adsorption: 0, 10, 20, 30, 40, 50, 60, 70, 80, 90; desorption: 80, 70, 60, 50, 40, 30, 20, 10, 0.

[2] = test of stability against mechanical treatment (grinding, XRPD); conditions: ground in a mortar for 2 min and 5 min
Description: In one embodiment, the stability of the crystal form I against mechanical treatment is determined by the following method: the crystal form I is placed in a mortar, ground for 2 min and 5 min respectively, and XRPD detection is carried out to analyze the solid after grinding. The crystal form I was placed in a mortar, ground for 2 min and 5 min, respectively, and XRPD detection was carried out to analyze the solid after grinding.

[3] = powder properties (bulk density, tap density, Carr index, angle of repose)
[4] = particle size distribution (PSD) test
Description: In one embodiment, the particle size distribution (PSD) of the crystal form I is determined using a Malvern Mastersizer 2000. The parameters used may be: pump speed: 2500 rpm; dispersant volume: 800 mL; dispersant: water; dispersion medium: 1% Tween 80. Crystal form I is a granular crystal, and the particle size is 50-100 μm observed under a microscope (Nikon Eclipse LV100POL). The particle size distribution (PSD) of the crystal form I was determined using a Malvern Mastersizer 2000. Pump speed: 2500 rpm; Dispersant volume: 800 mL; Shielding degree: 10%-20%; Dispersant: water; Dispersion medium: 1% Tween 80; Background measurement: 12s; Sample measurement: 12s; Measurement cycle: 3.

[5] = thermogravimetric analysis (TGA) test; conditions: heated to 200° C.
Description: Thermogravimetric analysis (TGA) is a common method for determining the thermal stability of compounds. Herein, TGA is also used to determine the hydration state of a compound. The rate of temperature rise during the test have a certain impact on the pattern. For example, an excessively high rate of temperature rise is not conducive to the detection of intermediate products. TGA patterns can be measured, for example, on a model TA TGA Q500 instrument. In one embodiment, the thermogravimetric analysis pattern of the crystal form I is determined by the following method: TGA thermogravimetric analyzer: TA TGA Q500; temperature range: room temperature ˜350° C.; scanning rate: 10° C./min; protective gas: nitrogen; flow rate: 40 mL/min (balance) or […] (sample). TGA Thermogravimetric Analyzer: TA TGA Q500, temperature range is from room temperature to 350° C., scanning rate is 10° C./min, the protective gas is nitrogen, and the flow rate is 40 mL/min (balance) or 60 mL/min (sample).

[6] = crystal form I stability test (HPLC purity and XRPD after storage); conditions: for chemical and physical stability (result in words): 40° C./75% RH and 60° C. for 14 days, HPLC purity and XRPD
Description: X-ray powder diffractometer: Bruker D8 advance X, the radiation source is Cu-Ku, the scanning range of the test is 3° (2θ)˜40° (2θ), the scanning step size is 0.02° (2θ), and the scanning rate is 0.3 sec/step. HPLC (purity determination): Waters Acquity Arc liquid chromatography system or any equivalent; Column: EclipsexDB C18, 4.6×150 mm, 3.5 μm, or any equivalent; Column temperature: 30° C.; detection wavelength: 210 nm; mobile phase A: 0.05% trifluoroacetic acid aqueous solution; mobile phase B: 0.05% trifluoroacetic acid acetonitrile solution; concentration gradient running time: 20 minutes. Two samples of the crystal form I were placed under the conditions of 40° C./75% relative humidity (RH), and the temperature in the oven was 60° C. (with humidity not controlled) for 14 days.

[7] = Malvern Mastersizer 2000, dispersant water, 1% Tween 80

hygroscopicity (result in words) ([1]; 25° C.): only slightly hygroscopic | hygroscopicity (result in words) ([1]; 25° C., listed as Orin1001 crystal form I): slightly hygroscopic | crystal form after DVS measurement (XRPD) ([1]; XRPD before and after DVS): did not change | weight gain (DVS) ([1]; after equilibration at 90% relative humidity, 25° C.): 0.34% | crystal form after grinding (XRPD) [2]: the crystal form does not change | Carr index [3]: 20% | angle of repose [3]: 30.6 ° | bulk density [3]: 0.72 g/mL | fluidity (result in words) [3]: very good | tap density [3]: 0.90 g/mL | D(0.1) [4, 7]: 67.1 μm | D(0.5) [4, 7]: 115.5 μm | D(0.9) [4, 7]: 206.4 μm | particle size observed under a microscope ([4]; Nikon Eclipse LV100POL): 50-100 μm | weight loss (TGA) [5]: about 0.017% | chemical and physical stability (result in words) [6]: good chemical and physical stability | chemical and physical stability (result in words) ([6]; listed as Orin1001 crystal form I): excellent stability | HPLC purity: peak area % ([6]; 40° C./75% RH, the 7th day): 99.62% and 99.54% | HPLC purity: peak area % ([6]; 40° C./75% RH, the 14th day): 99.54% and 99.56% | HPLC purity: peak area % ([6]; 60° C. (in oven), humidity not controlled, the 7th day): 99.64% and 99.58% | HPLC purity: peak area % ([6]; 60° C. (in oven), humidity not controlled, the 14th day): 99.52% and 99.54% | HPLC purity: peak area % ([6]; TO column of the 7th day table): 99.60% and 99.58% | HPLC purity: peak area % ([6]; TO column of the 14th day table): 99.53% and 99.54%
SMILES: COc1cc2c(C)c(CC(=O)N3CCOCC3)c(=O)oc2c(C=O)c1O [crystal form I]
